The results in this text go back to patent publication US9512180B2, “Compstatin analogs” (THE REGENTS OF THE UNIVERSITY OF CALIFORNIA, priority 2012, dated 2016).

Where “and” joins values, the source holds several entries; their conditions need not be identical. Equal values may be shown once. Bridge positions count the residues as written; N and C are the ends. Square brackets hold non-standard residues; d marks the D form. Peptide text beside a SMILES is read from it. Trp(1-Me) = Cn1cc(C[C@H](N)C(=O)O)c2ccccc21 Some results are limits rather than exact numbers.

Data set [1] deals with complement alternative pathway (AP). The data set can be described thus: C3b ELISA (inhibition of C3b formation). The note with it: for IC50: Table 9, means from three independent experiments, read-out: IC50, C3b ELISA. In kind it is biochemical, human. The procedure: (§1) Inhibition of the complement alternative pathway (AP) by compstatin family peptides was assayed by ELISA. Peptides were dissolved in phosphate buffered saline (PBS, 150 mM). Initial peptide concentrations were calculated using the Beer-Lambert Law with an extinction coefficient of 5,500 (1/M·cm) for Trp and 5,470 (1/M·cm) for methylated-Trp present in the sequence, at 280 nm. Nunc Maxisorp 96-well plates were coated with 1 μg lipopolysaccharides (LPS) from Salmonella enteriditis for ˜16 h at room temperature. Plates were washed three times with PBS/0.05% Tween-20 (PBS-T) between each step. Plates were blocked with 4% bovine serum albumin (BSA) in PBS-T for 1 h at 37° C. Serial peptide dilutions were performed in 96-well plates, using gelatin veronal-buffered saline with 5 mM MgCl2 and 10 mM EGTA (GVBS-MgEGTA). Normal human serum (Complement Technology Inc., Tyler, Tex., USA) was diluted in GVBS-MgEGTA and mixed with compstatin serial dilutions to a final concentration of 30%. Serum diluted in GVBS-MgEGTA and GVBS (containing 20 mM EDTA) were used as positive and negative controls for complement activation, respectively. Dilutions were preincubated for 15 minutes at room temperature, transferred to ELISA plates, and incubated for 1 h at 37° C. Generation of C3b and C5b-9 were assayed using horseradish peroxidase (HRP)-conjugated anti-C3 (MP Biomedicals, Solon, Ohio, USA) and anti-05b-9 aEll (Abcam, Cambridge, Mass., USA), respectively. Plates were washed and incubated with either anti-C3-HRP (1:5000 in 1% BSA/PBS-T) or anti-05b-9 (1:1000 in 1% BSA/PBS-T) for 1 h at 37° C. For C5b-9 detection, primary antibody incubation was followed by incubation with anti-mouse-HRP (BioRad, Hercules, Calif., USA) for 1 h at 37° C. (1:5000 in 1% BSA/PBS-T). Bound C3b and C5b-9 were quantified using a 3,3′,5,5′-tetramethylbenzidine substrate solution containing urea hydrogen peroxide in 0.11 M sodium acetate buffer, followed by a 1 N H2SO4 acid stop. Plates were measured spectrophotometrically at 450 nm. Percent inhibition of C3b and C5b-9 deposition was plotted against peptide concentration and the data was fitted to a logistic dose response curve with Prism software (GraphPad, San Diego, Calif., USA) to determine IC50 values.
(§2) In all assays, MgEGTA was used to chelate Ca′ ions required for classical/lectin pathway complement activation, while providing Mg′ necessary for AP activation. ELISAs allow for direct detection of C3b and C5b-9 formed during AP activation, while erythrocyte lysis assays provide a functional assessment of AP-mediated hemolysis in serum. […] Table 9 summarizes the IC50 values derived from the three different assays. […] The relative potencies of the peptides, based on the measured ICH values, are consistent across all three assays (Peptide III˜Peptide VI˜Peptide IX>Peptide I>Parent). Based on the assay conditions used in this study, peptides inhibited C5b-9 formation with moderately better efficacy than formation of C3b, while slightly higher concentrations were necessary to inhibit AP-mediated hemolysis.
For orientation: In an ELISA, binding on a coated surface is turned into a signal by an enzyme label.

The test system is the same in data set [2]. The data set can be described thus: C5b-9 ELISA (inhibition of C5b-9 terminal complex formation). In kind it is biochemical, human. The protocol: as §1, §2
Data set [3] in a line: Aqueous solubility by concentration measurement (absorbance at 280 nm) of saturated peptide solutions. It is filed as physicochemical. The procedure:
The relative lipophilicities of Peptides I, III, VI, IX, and Parent are inversely consistent with solubilities as determined via concentration measurement (absorbance at 280 nm) of saturated peptide solutions, with Peptides I, III, and Parent having approximate aqueous solubilities of >1 mM, Peptide VI>500 μM, and Peptide IX<500 μM.

Where [4] appears, read: Table 9, means from three independent experiments, read-out: IC50, C5b-9 ELISA.
Setting [5] is: table 13, read-out: C5b-9 ELISA IC50.

A word on the IC50: it is the concentration at which inhibition is half-maximal. Usually solubility stands for the dissolved amount per volume that the medium holds. Low values mean a poorly soluble substance, high ones a readily soluble substance.

Turning to `CC[C@H](C)[C@H](N)C(=O)N[C@H]1CSSC[C@@H](C(=O)N[C@H](C(N)=O)[C@@H](C)O)NC(=O)[C@H](CCCN=C(N)N)NC(=O)[C@H](Cc2cnc[nH]2)NC(=O)[C@H](Cc2cnc[nH]2)NC(=O)CNC(=O)[C@H](Cc2c[nH]c3ccccc23)NC(=O)[C@H](CC(=O)O)NC(=O)[C@H](CCC(N)=O)NC(=O)[C@H](C(C)C)NC(=O)[C@H](C(C)C)NC1=O` [Parent, ICV VQDWGH HRCT-NH2, reference compound], the “inhibition less than other peptides” value is 10- to 15 fold in data set [1] (C3b inhibition in ELISA, versus Peptides I, III, VI, IX) and 10- to 15 fold in data set [2] (C5b-9 inhibition in ELISA, versus Peptides I, III, VI, IX). For the same compound, the 50% inhibitory concentration (IC50) is 35000 nM in data set [1]; 18600 nM in data set [2] (setting [4]); 18600 nM and 12600 nM in data set [2] (setting [5]).
As to `CC(=O)N[C@@H](CCCNC(=N)N)C(=O)N[C@H]1CSSC[C@@H](C(=O)N[C@H](C(N)=O)[C@@H](C)O)NC(=O)[C@H](CCCNC(=N)N)NC(=O)[C@H](Cc2c[nH]cn2)NC(=O)[C@H](C)NC(=O)CNC(=O)[C@H](Cc2c[nH]c3ccccc23)NC(=O)[C@H](CC(=O)O)NC(=O)[C@H](CCC(N)=O)NC(=O)[C@H](Cc2c[nH]c3ccccc23)NC(=O)[C@H](C(C)C)NC1=O` [Peptide I, Ac- RCV WQDWGA HRCT-NH2] (Ac-RCVWQDWGAHRCT-NH2; disulfide 2-12), the half-inhibitory concentration (IC50) in data set [1] was 2580 nM; in data set [2] (setting [4]), 2020 nM; in data set [2] (setting [5]), 1000 nM and 2000 nM. The compound further came in with a solubility in data set [3] of more than 1000 µM.
`CC(=O)N[C@@H](CCCNC(=N)N)C(=O)N[C@H]1CSSC[C@@H](C(=O)N[C@H](C(N)=O)[C@@H](C)O)NC(=O)[C@H](CCCNC(=N)N)NC(=O)[C@H](Cc2c[nH]cn2)NC(=O)[C@H](C)NC(=O)CNC(=O)[C@H](Cc2c[nH]c3ccccc23)NC(=O)[C@H](CC(=O)O)NC(=O)[C@H](CCC(N)=O)NC(=O)[C@H](Cc2cn(C)c3ccccc23)NC(=O)[C@H](C(C)C)NC1=O` [Peptide III, Ac- RCV meWQDWGA HRCT-NH2] (Ac-RCV[Trp(1-Me)]QDWGAHRCT-NH2; disulfide 2-12): the IC50 in data set [1] was 1420 nM; in data set [2] (setting [4]) it was 1070 nM; in data set [2] (setting [5]), 600 nM and 1100 nM. Besides, the solubility in data set [3] was more than 1000 µM.
For `CC[C@H](C)[C@H](NC(=O)[C@H](CO)NC(=O)[C@H](CCCNC(=N)N)NC(C)=O)C(=O)N[C@H]1CSSC[C@@H](C(=O)N[C@H](C(N)=O)[C@@H](C)O)NC(=O)[C@H](CCCNC(=N)N)NC(=O)[C@H](Cc2c[nH]cn2)NC(=O)[C@H](C)NC(=O)CNC(=O)[C@H](Cc2c[nH]c3ccccc23)NC(=O)[C@H](CC(=O)O)NC(=O)[C@H](CCC(N)=O)NC(=O)[C@H](Cc2cn(C)c3ccccc23)NC(=O)[C@H](C(C)C)NC1=O` [Peptide VI, Ac-RS-ICV meWQDWGA HRCT-NH2], the IC50 was 1740 nM in data set [1]; 1130 nM in data set [2] (setting [4]); 600 nM and 1100 nM in data set [2] (setting [5]). This compound yielded a solubility in data set [3] of more than 500 µM.
